In US11571480B2, “Multi-ligand drug conjugates and uses thereof” (priority 2015, dated 2023):
Numbered stars: 1 amine (or outer) side, 2 acyl side, 3 side chain; on linkers, the order of the positions; unused ones are H or OH. Bridge positions count the residues as written; N and C are the ends. Square brackets hold non-standard residues; d marks the D form. Peptide text beside a SMILES is read from it. I, II: the chains in the order shown. * marks the point of attachment. Hexanoyl(6-succinimido-3yl) = O=C1CC([*:1])C(=O)N1CCCCCC(=O)[*:2]; Pteroyl = Nc1nc2ncc(CNc3ccc(C(=O)*)cc3)nc2c(=O)[nH]1; Dolaproine = CO[C@@H]([C@@H]1CCCN1)[C@@H](C)C(=O)O; Dil = CC[C@H](C)[C@H](NC)[C@@H](CC(=O)O)OC; PABC = O=C(OCc1ccc(N[*:1])cc1)[*:2]; X1 = C[C@@H](N*)[C@@H](O)c1ccccc1; Cit = NC(=O)NCCC[C@H](N)C(=O)O; NMeV = CN[C@H](C(=O)O)C(C)C

Assays:
[1] = system: KB (folate receptor positive cell); assay: Endocytosis test of conjugate LDC10B (FITC conjugates, confocal microscope); assay type: cell-based, human; set-up: endocytosis after pre-incubation with free Folate: dose or concentration left out as unconfirmed
Procedure: (§1) The involved conjugates are as follows: Folate-FITC (FITC-ACP-Lys (Folate)-OH), 10B-FITC, and 10A-FITC.
(§2) Culture medium: RPMI 1640 Medium, no folic acid
(§3) 1) human nasopharyngeal cancer cell line KB, melanoma cell line A375, human lung cancer cell H460, ovarian cancer cell SKOV3, breast cancer cell line HCC1954 were incubated at 37° C., 5% CO2 in RPMI 1640 medium containing 10% fetal bovine serum, the cells were passaged every 2-3 days.
(§4) 2) human nasopharyngeal cancer cell line KB, melanoma cell line A375, human lung cancer cell H460, ovarian cancer cell SKOV3, breast cancer cell line HCC1954 were plated at 1×10^3 cells per well (96-well plate) and incubated for 8-12 h at 37° C., 5% CO2.
(§5) 3) 1 μM of FITC conjugates or control was added to the cells in the plate and incubated for 10-15 min at 37° C. The culture medium in the wells was then removed by aspiration and the cells were washed with PBS for three times.
(§6) 4) cells were then imaged with confocal microscope (brand) to visualize endocytosis.

[2] = system: A375 (folate receptor negative cell); assay: as above; assay type: cell-based; details: 1 μM FITC conjugate, 10-15 min at 37° C.
Procedure: as §1, §2, §3, §4, §5, §6

[3] = system: receptor positive cell lines; assay: Cytotoxicity test of conjugate LDC10BR, comparison over cell lines; assay type: cell-based
Procedure: as §2
(§7) 1) human nasopharyngeal cancer cell line KB, melanoma cell line A375, and human lung cancer cell H460 were incubated at 37° C., 5% CO2 in RPMI 1640 medium containing 10% fetal bovine serum, the cells were passaged every 2-3 days.
(§8) 2) human nasopharyngeal cancer cell line KB, melanoma cell line A375, and human lung cancer cell H460 were plated at 1×10^3 cells per well (96-well plate) and incubated for 8-12 h at 37° C., 5% CO2.
(§9) 3) Stock solutions of LDC conjugates or control were prepared in PBS solution. 100 μL/well of serially diluted LDC conjugates or control was added to the cells in the plate and incubated for 15-30 min at 37° C., 5% CO2. The culture medium in the wells was then removed by aspiration and the cells were incubated in fresh culture medium without conjugates (150 μL/well) for 2-3 days at 37° C., 5% CO2.
(§10) 4) CellTiter 96® Aqueous One Solution Cell Proliferation Assay (Promega) was added to each well to measure the amount of […] cells, and the plate was incubated in an incubator for 1 h at 37° C., 5% CO2.
(§11) 5) the plate was read at 490 nm on a microplate reader, and the cell survivals were compared for cells with or without the treatment of LDC conjugates. The LDC drug concentrations that are required for 50% cell death (IC50 values) were determined.

melanoma cell line A375 = assay: Cytotoxicity test of conjugate LDC10BR; assay type: cell-based; details: A375, incubated 15-30 min, then 2-3 days
Procedure: as §2, §7, §8, §9, §10, §11

[4] = system: human lung cancer cell H460; assay: Cytotoxicity test of conjugate LDC10BR; assay type: cell-based; details: H460, incubated 15-30 min, then 2-3 days
Procedure: as §2, §7, §8, §9, §10, §11

[5] = system: human nasopharyngeal cancer cell line KB; assay: Cytotoxicity test of conjugate LDC10BR; assay type: cell-based; details: incubated 15-30 min, then 2-3 days
Procedure: as §2, §7, §8, §9, §10, §11

Row | Compound | endocytosis (enters cells) ([1]; 1 μM FITC conjugate, 10-15 min at 37° C., KB cells) | endocytosis after pre-incubation with free Folate ([1]; pre-incubating KB cells with (50 fold excess of conjugate) free Folate, data not shown) | endocytosis (enters cells) [2] | cytotoxicity compared with bi-ligand conjugate LDC10B (in words) [3] | IC50 (melanoma cell line A375) [µM] | IC50 [4] [µM] | IC50 [5] [µM]
1 | FITC-ACP-Lys (Folate)-OH [Folate-FITC] | enters KB cells | completely blocked | but not A375 cells |  |  |  | 
2 | CC[C@H](C)[C@@H]([C@@H](CC(=O)N1CCC[C@H]1[C@H](OC)[C@@H](C)C(=O)N[C@H](C)[C@@H](O)c1ccccc1)OC)N(C)C(=O)[C@@H](NC(=O)[C@H](C(C)C)N(C)C(=O)OCc1ccc(NC(=O)[C@H](CCCNC(N)=O)NC(=O)[C@@H](NC(=O)CCCCCN2C(=O)CC(SC[C@H](NC(=O)[C@H](CC(=O)O)NC(=O)CNC(=O)[C@H](CCCNC(=N)N)NC(=O)[C@H](CCC(=O)O)NC(=O)c3ccc(NCc4cnc5[nH]c(N)nc(=O)c5n4)cc3)C(=O)N[C@@H](CCCCN)C(=O)N[C@@H](CCC(=O)O)C(=O)N[C@@H](Cc3ccccc3)C(=O)N[C@@H](CC(C)C)C(=O)N[C@@H](Cc3c[nH]cn3)C(=O)N3CCC[C@H]3C(=O)N[C@@H](CO)C(=O)N[C@@H](CCCCN)C(=O)N[C@H](C(=O)N[C@@H](CC(=O)O)C(=O)N[C@@H](CC(C)C)C(=O)N3CCC[C@H]3C(=O)N[C@@H](CCCNC(=N)N)C(=O)O)C(C)C)C2=O)C(C)C)cc1)C(C)C (stereo partly shown) [LDC10BR] (I: Pteroyl-ERGDCKEFLHPSKVDLPR-OH / II: V[Cit][PABC][NMeV]V[Dil][Dolaproine]-X1; linker I:5-II:N via Hexanoyl(6-succinimido-3yl)) |  |  |  | comparable to the bi-ligand conjugate LDC10B | 38.1 | 6.4 | 6.6
